How the values were obtained:
[1] = Viscoelasticity of cystic fibrosis sputum in vitro by magnetic rheometry; design: species or system human; conditions: final concentration 8 mg/ml in CF sputum
Source text: FIG. 5 is a bar graph illustrating the effect of heparin and dextran sulfate on […] of sputum from 7 cystic fibrosis human patients as determined by magnetic rheometry, expressed as the average log G* over 1-100 rad/s after treatment with saline, heparin (MW 6000), Dextran Sulfate (MW 5000, about 17% sulphur by weight), heparin (dimer, highly (fully) sulfated, H-9267: C12H13NO19S3Na4), or heparin (dimer, low sulfate, partially de-sulfated H-9142, C12H18NO13SNa) to a final concentration of about 8 mg/ml (or […]) of sputum. […] The effect was similar to heparin, M.W. 6000.
Mucus Viscoelasticity Measurements: The magnetic microrheometer technique was used to measure the viscosity and elasticity of the dog mucus samples [21]. A […] steel ball was positioned in a 5-10 mL sample of mucus, and the motion of this sphere under the influence of an oscillating electromagnetic field gradient was used to determine the rheological properties of the mucus. The image of the steel ball was projected via a microscope onto a pair of photocells, whose output was amplified and transmitted to an oscilloscope. […]
(§1) The parameters of mucus viscoelasticity determined were the rigidity index or mechanical impedance, i.e. G*, reported here on a log scale, expressing the average vector sum of “viscosity+elasticity” over the frequency range 1-100 rad/s, and tan d, the mechanical loss tangent, expressing the ratio of viscous to elastic deformation. These viscoelastic parameters can be used to predict mucus clearability by ciliary and cough mechanisms, based on the measured Theological properties and observations of clearance from model studies.
(a) In vitro Sputum from 7 cystic fibrosis human patients were measured with regards to viscoelasticity after treatment with saline, heparin (MW˜6000), dextran sulfate (MW˜5000), heparin (dimer, highly sulfated), or heparin (dimer, de-sulfated) in accordance with the protocols for measuring viscoelasticity described in Example 1. […]

human subjects = conditions: oral, human subjects [34]; cited from earlier work
healthy mongrel dogs [2] = experiment: Tracheal transepithelial potential difference (PD) by agar bridge technique after aerosol; format: in vivo, dog
Procedure: (§2) Seven healthy mongrel dogs (6 male/1 female), weight 21-28 kg, with no respiratory tract bacterial infections, were studied. The dogs were anesthetized with sodium pentobarbital (ca 30 mg/kg i.v., supplemented as required) and intubated with a cuffed endotracheal tube. They were administered Ringer aerosol first, followed by 6.5 mg/ml dextran sulfate, 20 mg/ml dextran sulfate, and 65 mg/ml dextran sulfate by aerosol. Each aerosolization was of 30 minutes duration, with a rest period of 30 minutes before the beginning of the next aerosol delivery. The aerosols were generated and delivered by a Pari LC STAR nebulizer using an air flow rate of 8 l/min, which results in an output of 0.58 ml/min and particles of […] mass median diameter. The nebulizer was loaded in each case with 10 ml of solution. The amount of solution remaining in the nebulizer after 30 minutes was recorded. A T-tube connection was provided to the endotracheal tube during aerosol delivery to ensure a minimal deadspace for ventilation and adequate delivery of the aerosol. The dogs breathed spontaneously throughout the experiment.
(§3) Tracheal mucus velocity (TMV) and tracheal potential difference (PD) was measured, and mucus samples were collected for each concentration of delivered drug. TMV was measured twice for each dose, i.e. during aerosolization, between 15 and 25 minutes from the start of aerosol delivery (designated as period-1), and 10-20 minutes after completion of aerosolization (designated as period-2). PD was measured during the period 5 to 10 minutes following each aerosol. […]
Transepithelial Potential Difference (PD, -mV); PD was measured by using two flexible microelectrodes (agar bridges of PE 160 size) saturated with KCl connected to calomel half cells, one for reference and the other for testing. […] The PD value was recorded when a steady state, value was achieved and remained stable for a least 30 seconds. […]

healthy mongrel dogs [3] = experiment: Tracheal mucociliary velocity (TMV) by charcoal particle displacement; format: in vivo, dog
Procedure: as §2, with “The dogs breathed spontaneously throughout the experiment.” left out
as §3
Tracheal Mucociliary Velocity (TMV, mm/min): TMV was determined by observing the rate of charcoal marker particle transport in the lower trachea. Under bronchoscopic visualization, ca, 5 mL of a charcoal suspension (Charac-50 diluted in Ringer's 1:10) was deposited on a lateral surface of the lower trachea 1-2 cm above the carina, and the rate of cephalad progression of the leading edge of the charcoal spot was monitored over the course of 10 minutes by gradually withdrawing the bronchoscope and recording its position relative to the endotracheal tube. […]

healthy mongrel dogs [4] = experiment: Tracheal mucus viscoelasticity by magnetic microrheometry after aerosol; format: in vivo, dog
Procedure: as §2
(§4) Tracheal mucus velocity (TMV) and tracheal potential difference (PD) was measured, and mucus samples were collected for each concentration of delivered drug. TMV was measured twice for each dose, i.e. during aerosolization, between 15 and 25 minutes from the start of aerosol delivery (designated as period-1), and 10-20 minutes after completion of aerosolization (designated as period-2). PD was measured during the period 5 to 10 minutes following each aerosol. Mucus was collected twice for each aerosol, once immediately after 30 minutes of aerosolization and a second time after an additional 30 minutes of spontaneous breathing.
All samples of dog mucus collected from endotracheal tubes were placed in 1.5 ml Eppendorf tubes for measurement of viscoelasticity by magnetic rheometry. After initial rheological testing, the mucus samples were preserved at −80° C. for subsequent analysis of collection rate and solids content.
Mucus Viscoelasticity Measurements: The magnetic microrheometer technique was used to measure the viscosity and elasticity of the dog mucus samples [21]. A […] steel ball was positioned in a 5-10 mL sample of mucus, and the motion of this sphere under the influence of an oscillating electromagnetic field gradient was used to determine the rheological properties of the mucus. The image of the steel ball was projected via a microscope onto a pair of photocells, whose output was amplified and transmitted to an oscilloscope. By plotting the displacement of the ball against the magnetic driving force, the viscoelastic properties of the mucus were ascertained.
as §1
(b) In vivo Seven healthy dogs were anesthetized, intubated and treated via aerosol with heparin sodium (MW 5000-6000) or dextran sulfate (MW 5000) and mucus viscoelasticity, transepithelial potential difference (PD) and tracheal mucus velocity (TMV) were determined, in accordance with the protocols described in Example 1 above. Non-lactated Ringer's solution was used as control. […] These changes were accompanied by a nonsignificant, upward trend in TMV, to approximately 130% of control. However, changes might be even more pronounced in animals with initially rigid mucus.

healthy mongrel dogs [5] = experiment: Mucus collection weight (MCW) by endotracheal tube method; format: in vivo, dog
Procedure: as §2, §4
Mucus Collection Weight (MCW, mg/30 min): Tracheal mucus was collected by the endotracheal tube (ETT) method, which involves the removal of mucus adherent to the ETT after extubation. Mucus collections were performed twice after each aerosol, once by immediately removing the ETT following aerosol inhalation, and the second 30 minute after inhalation, after re-installing a clean ETT The mucus samples, which had been frozen, were thawed and weighed by microbalance, to determine MCW, an index of flux, and indirectly of the rate of secretion.

healthy mongrel dogs [6] = experiment: Solids content (% SC) of collected airway secretion; format: in vivo, dog
Procedure: as §2, §3
Solids content (wet:dry weight ratio): A drying apparatus and microbalance were used to calculate the dry weight and wet weight of the collected secretion, from which the percent solids content (% SC) was calculated. […] These dried samples were then reweighed, and % SC was calculated from ratio of dry to wet weight.

healthy mongrel dogs [7] = experiment: Tolerability / toxic effects of aerosol inhalation in dogs; format: in vivo, dog
Procedure: Seven healthy mongrel dogs (6 male/1 female), weight 21-28 kg, with no respiratory tract bacterial infections, were studied. The dogs were anesthetized with sodium pentobarbital (ca 30 mg/kg i.v., supplemented as required) and intubated with a cuffed endotracheal tube. They were administered Ringer aerosol first, followed by 6.5 mg/ml dextran sulfate, 20 mg/ml dextran sulfate, and 65 mg/ml dextran sulfate by aerosol. Each aerosolization was of 30 minutes duration, with a rest period of 30 minutes before the beginning of the next aerosol delivery. The aerosols were generated and delivered by a Pari LC STAR nebulizer using an air flow rate of 8 l/min, which results in an output of 0.58 ml/min and particles of 2.0 mm mass median diameter. The nebulizer was loaded in each case with 10 ml of solution. The amount of solution remaining in the nebulizer after 30 minutes was recorded. A T-tube connection was provided to the endotracheal tube during aerosol delivery to ensure a minimal deadspace for ventilation and adequate delivery of the aerosol. The dogs breathed spontaneously throughout the experiment.

## heparin [heparin, MW 6000]
[1]
  viscoelasticity (average log G* over 1-100 rad/s) compared to saline control: similar

## dextran sulfate [dextran sulfate (m.w. 7000)]
Human subjects
  absorbability: poor absorbablity
  anticoagulant effect: little anticoagulant effect
  other safety concerns: no other apparent safety concerns

## heparin sodium [reference compound]
Healthy mongrel dogs [2]; 6.5 mg/ml aerosol, significant decrease, Ringer control
  PD, % of control: 55.1 % of control
Healthy mongrel dogs [3]; 6.5 mg/ml aerosol, nonsignificant upward trend
  TMV, % of control: approximately 130 % of control
Healthy mongrel dogs [4]; 6.5 mg/ml aerosol, significantly decreased
  mucus viscoelasticity (G*), % of control: 36 % of control

## N[C@H]1C(O)O[C@H](CO)[C@@H](O[C@@H]2OC(C(=O)O)=C[C@H](O)[C@H]2OS(=O)(=O)O)[C@@H]1O (stereo partly shown) [de-sulfated heparin dimer]
[1]
  viscoelasticity (average log G* over 1-100 rad/s) compared to saline control: no significant improvement

## O=C(O)C1=C[C@H](O)[C@@H](OS(=O)(=O)O)[C@H](O[C@H]2[C@H](O)[C@@H](NS(=O)(=O)O)C(O)O[C@@H]2COS(=O)(=O)O)O1 (stereo partly shown) [highly sulfated heparin dimer]
[1]
  viscoelasticity (average log G* over 1-100 rad/s) compared to saline control: significant decrease in viscoelasticity

## Dextran sulfate, sodium salt [DexSO4]
Healthy mongrel dogs [2]; 65 mg/ml aerosol, vs Ringer control
  mean increase in PD (maximal change): 9.86 mV
Healthy mongrel dogs [2]; after 30-minute aerosol at 6.5, 20 and 65 mg/ml, 7 dogs
  PD compared with Ringer control: increased significantly
Healthy mongrel dogs [3]; 6.5 mg/ml aerosol (first dose), non-significant, p=0.066
  TMV, % of baseline: 128 % of baseline
Healthy mongrel dogs [3]; aerosol 6.5-65 mg/ml, during and after aerosolization
  change in mucociliary velocity (TMV): no significant change
Healthy mongrel dogs [4]; aerosol 6.5-65 mg/ml
  mucus recoil parameter, tan d: no significant changes
Healthy mongrel dogs [4]; aerosol at 6.5 and 65 mg/ml
  average log G* compared with respective Ringer control: significant decrease
Healthy mongrel dogs [4]; during 65 mg/ml aerosol
  decrease in G* expressed as a factor: 2.61
Healthy mongrel dogs [4]; during 65 mg/ml aerosol, vs Ringer, p=0.021
  mean decrease in average log G* (1-100 rad/s): 0.42 log units
Healthy mongrel dogs [4]; in vivo, healthy dog mucus
  effective concentration range relative to neutral dextran (reduced viscoelastic modulus, predicted clearance): half-log lower concentration range
Healthy mongrel dogs [5]; 6.5 mg/ml-1 (collected immediately after aerosol), wet weight
  mucus collection weight (MCW, mg/30 min): 4.35 ± 0.67 mg
Healthy mongrel dogs [5]; 20 mg/ml-1, wet weight
  mucus collection weight (MCW, mg/30 min): 4.47 ± 0.59 mg
Healthy mongrel dogs [5]; 65 mg/ml-1, wet weight
  mucus collection weight (MCW, mg/30 min): 5.64 ± 1.14 mg
Healthy mongrel dogs [5]; 6.5-65 mg/ml aerosol
  change in mucus collection weight with increasing concentration: no change
Healthy mongrel dogs [6]; 65 mg/ml-1 (Ringer-1: 6.16±0.20%), p=0.042
  solids content (% SC) of collected fluid: 9.27±1.02%
Healthy mongrel dogs [6]; 65 mg/ml-2 (Ringer-2: 6.87±0.92%), p=0.009
  solids content (% SC) of collected fluid: 10.78%
Healthy mongrel dogs [6]; increasing concentrations 6.5, 20, 65 mg/ml
  effect on mucus % solids content: significant increase
Healthy mongrel dogs [7]; aerosol 6.5, 20, 65 mg/ml
  bronchial mucosal appearance: remained normal
Healthy mongrel dogs [7]; aerosol 6.5, 20, 65 mg/ml, 30 min each, all seven dogs
  cough or other side effects during inhalation: without significant cough or other side effects
Healthy mongrel dogs [7]; present study, aerosol in dogs
  toxic effects: no toxic effects
